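Assay format: 96-well plates, 48-hour exposure. GI50: concentration for 50% inhibition of growth.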 Calls of active or inactive are those of the source. Cut-off read from the data, not from the text of the source: active = GI50 up to about 1.1 µM and inactive = higher. Some results are limits rather than exact numbers.

A word on the GI50: it is the concentration that inhibits growth by half.

Test systems include UACC-257; LOX IMVI; HT-29; OVCAR-5; DU-145; RPMI-8226; Malme-3M; MOLT-4; KM12; SK-MEL-2; MCF7; A498; 786-0; IGROV-1; HCC 2998; OVCAR-3; A549; NCI-H522; HOP-92; Hs-578T.
What all share (assay): DTP human tumour cell line panel, 48 h

As for `COC(=O)CP1(=O)OC2C(C3CCC2(C)C3(C)C)N1c1cc(C(F)(F)F)cc(C(F)(F)F)c1` (stereo unspecified), the GI50 with UACC-257 is 32.8 µM (inactive); with LOX IMVI, 22.4 µM (inactive); in the assay on HT-29, 26.1 µM (inactive); with OVCAR-5 it was 25.3 µM (inactive); with DU-145 it was 31.3 µM (inactive); in the assay on RPMI-8226, 15.9 µM (inactive). For the same compound, the GI50 in the assay on Malme-3M was 17.3 µM (inactive); in the assay on MOLT-4, 16.7 µM (inactive); in the assay with KM12, 17.1 µM (inactive); with SK-MEL-2 it was 20.9 µM (inactive); in the assay on MCF7 it was > 100 µM (inactive); with A498, > 100 µM (inactive). For the same compound, the GI50 in the assay with 786-0 is 18.2 µM (inactive); in the assay on IGROV-1 it was 45.7 µM (inactive); in the assay with HCC 2998 it was 22.9 µM (inactive); in the assay with OVCAR-3, 15.2 µM (inactive); with A549 it was 30 µM (inactive).
As for `CCC/C(=N\NC(=O)c1cc2ccccc2cc1O)C(CC)C(=O)CCC(=O)N(Cc1ccccc1)Cc1ccccc1` (stereo unspecified), the GI50 in the assay on UACC-257 is 36.1 µM (inactive); in the assay on LOX IMVI, 43 µM (inactive); in the assay with HT-29, 83.2 µM (inactive); in the assay on OVCAR-5, 36.2 µM (inactive); with RPMI-8226, 45.8 µM (inactive); in the assay with Malme-3M, 50.1 µM (inactive). Further, the GI50 was 30.7 µM (inactive) in the assay with MOLT-4; 96.6 µM (inactive) with KM12; 28.6 µM (inactive) in the assay with SK-MEL-2; 85.9 µM (inactive) in the assay with A498; 25.7 µM (inactive) in the assay on 786-0; 34.5 µM (inactive) in the assay with IGROV-1. The GI50 in the assay with HCC 2998 was 67.5 µM (inactive); with OVCAR-3 it was 20.5 µM (inactive); in the assay with NCI-H522 it was 39.1 µM (inactive); in the assay with A549, 63 µM (inactive); in the assay on HOP-92, 33.3 µM (inactive).
As for `O=c1[nH]cnc2[nH]nnc12`, the GI50 was 4.39 µM (inactive) in the assay with UACC-257; 0.668 µM (active) in the assay with LOX IMVI; 7.96 µM (inactive) with HT-29; 29.8 µM (inactive) in the assay with OVCAR-5; 0.685 µM (active) with RPMI-8226; 1.41 µM (inactive) in the assay with Malme-3M. For the same compound, the GI50 was 0.726 µM (active) with MOLT-4; 32.7 µM (inactive) in the assay with KM12; 0.386 µM (active) in the assay on SK-MEL-2; 57 µM (inactive) in the assay with A498; 3.27 µM (inactive) in the assay with 786-0; 16 µM (inactive) with IGROV-1. Besides, the GI50 with HCC 2998 is 18.1 µM (inactive); in the assay on OVCAR-3, 14 µM (inactive); in the assay with NCI-H522, 9.51 µM (inactive); with A549, 84.9 µM (inactive); in the assay with HOP-92 it was 2.19 µM (inactive).
Consider `CC(=O)/C=C\C(=O)NNS(=O)(=O)c1ccc(C)cc1`, for which the GI50 with UACC-257, in the assay on LOX IMVI, in the assay on HT-29, in the assay on OVCAR-5, in the assay with RPMI-8226 and in the assay on Malme-3M was > 100 µM (inactive) in each case. The GI50 with MOLT-4, in the assay on KM12, with SK-MEL-2, with A498, in the assay with 786-0 and in the assay with IGROV-1 was > 100 µM (inactive) each time. Moreover, the GI50 in the assay on HCC 2998, with OVCAR-3, in the assay on NCI-H522, in the assay with A549 and in the assay on HOP-92 was > 100 µM (inactive) throughout.
`CN(C)CC1(C)CC/C(=C\c2ccc(Cl)cc2)C1=O` (stereo unspecified): the GI50 in the assay with UACC-257 is 44.7 µM (inactive); in the assay on LOX IMVI it was 31.3 µM (inactive); in the assay on HT-29, 44.2 µM (inactive); in the assay with OVCAR-5 it was > 100 µM (inactive); in the assay with RPMI-8226 it was 19.1 µM (inactive); in the assay with Malme-3M, > 100 µM (inactive). The GI50 in the assay with MOLT-4 was 20.5 µM (inactive); with KM12 it was 31.8 µM (inactive); with SK-MEL-2 it was > 100 µM (inactive); with A498 it was 49.1 µM (inactive); in the assay with 786-0, 59.2 µM (inactive); with IGROV-1, 74 µM (inactive). Besides, the GI50 with HCC 2998 was 40.5 µM (inactive); with OVCAR-3, 34.7 µM (inactive); in the assay with NCI-H522, 17.7 µM (inactive); in the assay with A549 it was 66.8 µM (inactive); in the assay with HOP-92 it was 59 µM (inactive).
`COc1ccc(CCCNC(=O)Cc2ccccc2CO)cc1OC`: the GI50 in the assay on UACC-257, in the assay with LOX IMVI, in the assay with Hs-578T, in the assay with HT-29, with OVCAR-5 and with DU-145 was > 100 µM (inactive) each time. For the same compound, the GI50 with Malme-3M, in the assay with MOLT-4, in the assay with KM12, in the assay on SK-MEL-2, in the assay on A498 and in the assay with 786-0 was > 100 µM (inactive) in each case. Besides, the GI50 with IGROV-1, in the assay on HCC 2998, in the assay with OVCAR-3, in the assay on A549 and in the assay on HOP-92 was > 100 µM (inactive) throughout.
In the case of `CN(C)Cc1cc(/C(=C(\C#N)c2ccccc2)c2ccc(O)cc2)ccc1O`, the GI50 in the assay on UACC-257 was 15.6 µM (inactive); with LOX IMVI, 12.1 µM (inactive); with HT-29 it was 15.4 µM (inactive); in the assay on OVCAR-5 it was 26.2 µM (inactive); in the assay on RPMI-8226 it was 20.2 µM (inactive); in the assay with Malme-3M it was 16.1 µM (inactive). Moreover, the GI50 in the assay on MOLT-4 was 15.3 µM (inactive); in the assay with KM12, 19.9 µM (inactive); with SK-MEL-2, 17.3 µM (inactive); with A498, 32.2 µM (inactive); in the assay on 786-0 it was 15 µM (inactive); in the assay with IGROV-1, 30.5 µM (inactive). The GI50 was 15.5 µM (inactive) with HCC 2998; 18.7 µM (inactive) in the assay on OVCAR-3; 12.9 µM (inactive) with NCI-H522; 24.6 µM (inactive) in the assay with A549; 14.4 µM (inactive) in the assay on HOP-92.
As for `Cc1c(N)nc(C(CC(N)=O)NCC(N)C(N)=O)nc1C(=O)NC(C(=O)NC(C)C(O)C(C)C(=O)NC(C(=O)NCCc1nc(-c2nc(C(=O)NCCCNCCCCN)cs2)cs1)C(C)O)C(OC1OC(CO)C(O)C(O)C1OC1OC(CO)C(O)C(OC(N)=O)C1O)c1c[nH]cn1` (stereo unspecified), the GI50 was > 10 µM (inactive) in the assay with UACC-257; 0.461 µM (active) in the assay with LOX IMVI; > 10 µM (inactive) in the assay with HT-29; > 10 µM (inactive) with OVCAR-5; > 10 µM (inactive) in the assay on RPMI-8226; 2.07 µM (inactive) in the assay with Malme-3M. In addition, the GI50 is 2.94 µM (inactive) with MOLT-4; > 10 µM (inactive) in the assay with KM12; > 10 µM (inactive) in the assay with SK-MEL-2; > 10 µM (inactive) in the assay with A498; 4.01 µM (inactive) with 786-0; > 10 µM (inactive) in the assay on IGROV-1. Further, the GI50 in the assay with HCC 2998 was > 10 µM (inactive); in the assay with OVCAR-3, > 6.28 µM (inactive); in the assay with NCI-H522 it was 2.1 µM (inactive); in the assay on A549, 4.81 µM (inactive); with HOP-92, 0.0724 µM (active).

For the origin of these results see ChEMBL document CHEMBL1201862, “PubChem BioAssay data set” (2004).
